Assay results as given in patent publication US9770407B2 (Lundbeck Pharmaceuticals LLC, priority 2005, dated 2017).
In brackets after ≈: the same amount, converted by molar mass. Several values for one entry are separate records, joined by “and”; a condition that tells them apart may be missing. Equal entries are not always repeated.

What was measured:
[1] = Estimated dissociation of CBZ from the inclusion complex on dilution in blood; conditions: based on simulations of dilution effects; assumes no interaction from endogenous agents
From the text: These relatively weak associations are within the range (100-20,000 M^−1) of those commonly seen with drug: cyclodextrin complexes (Crit. Rev. Ther. Drug Carrier Systems, 14 (1): 1-104, 1997).
The minimal volume of distribution of a drug administered intravenously is based on the plasma volume, which is approximately 5% of the body weight. Therefore, in a 70 kg subject, the plasma volume is approximately 3.5 L. Alternatively, one could assume that the volume of distribution is extracellular water, accounting for approximately 30% of the total body weight, in which case the volume of distribution is about 21 L.
If a 20 mL dose were administered, the dilution ranges from 175-1,050-fold.
Based on the simulations of dilution effects, it appears that 70-95% of the CBZ will immediately dissociate from the inclusion complex in the blood if one assumes no interaction from endogenous agents.

[2] = clinical; conditions: human, in vivo
[3] = Phase solubility of CBZ in aqueous Captisol and aqueous Cavitron; type: physicochemical; conditions: for Measured CBZ conc: ambient laboratory temperature
Description: The percent weight/volume cyclodextrin solutions were prepared by adding the appropriate amount of cyclodextrin to a flask and filling to the desired total volume (10 mL) with water, as shown in the following Table 4. An excess of carbamazepine was added to each eppendorf tube. Appropriate vehicles were added to each tube and the final volumes were 1 mL. The solubility of CBZ was determined at ambient laboratory temperatures in various concentrations of aqueous Captisol and aqueous Cavitron (brand names of modified cyclodextrins useful in the present invention). The drug substance was added to a microcentrifuge tube and the appropriate vehicle was added. Periodically, the samples were centrifuged and then an aliquot was removed from the supernatant, diluted as necessary and assayed by HPLC to determine the concentration. The phase solubility was evaluated at least three times during each experiment to insure that the mixture achieved equilibrium. […] The solubilities reported in Table 5 are the average of two or three concentration determinations obtained during the respective time course.

[4] = immediate release and extended release tablets; previously estimated; cited from earlier work

NC(=O)N1c2ccccc2C=Cc2ccccc21 [Carbamazepine, 5H-dibenz[b,f]azepine-5-carboxamide]
CBZ that will immediately dissociate from the inclusion complex in the blood [1]: 70-95%
AUC ([2]; iv, 100 mg, AUC 0-° o): 36500 ng·h/mL
clearance ([2]; iv, CL): 0.6 mL/min/kg
AUC ([2]; po, AUCss (po)): 87200 ng·h/mL
bioavailability ([2]; po, absolute bioavailability of oral CBZ during maintenance therapy centers around): 70 to 75%
bioavailability ([2]; po, average oral bioavailability): 65 to 75%
Measured CBZ conc ([3]; Captisol 0% w/v, CBZ source Orgamol): 0.2 mg/mL
Measured CBZ conc ([3]; Captisol 0% w/v, CBZ source Spectrum): 0.2 mg/mL
Measured CBZ conc, Ave ([3]; Captisol 0% w/v, average of the three determinations): 0.2 mg/mL
Measured CBZ conc ([3]; Captisol 5% w/v, CBZ source Orgamol, listed as CBZ): 2.2 mg/mL and 2.4 mg/mL
Measured CBZ conc ([3]; Captisol 5% w/v, CBZ source Spectrum): 2.4 mg/mL
Measured CBZ conc, Ave ([3]; Captisol 5% w/v, average of the three determinations): 2.3 mg/mL
Measured CBZ conc ([3]; Captisol 10% w/v, CBZ source Orgamol, listed as CBZ): 4.1 mg/mL and 4.6 mg/mL
Measured CBZ conc ([3]; Captisol 10% w/v, CBZ source Spectrum): 6.2 mg/mL
Measured CBZ conc, Ave ([3]; Captisol 10% w/v, average of the three determinations): 5.0 mg/mL
Measured CBZ conc ([3]; Captisol 15% w/v, CBZ source Orgamol, listed as CBZ): 6.4 mg/mL and 7.7 mg/mL
Measured CBZ conc ([3]; Captisol 15% w/v, CBZ source Spectrum): 6.9 mg/mL
Measured CBZ conc, Ave ([3]; Captisol 15% w/v, average of the three determinations): 7.0 mg/mL
Measured CBZ conc ([3]; Captisol 20% w/v, CBZ source Orgamol, listed as CBZ): 9.2 mg/mL and 10.3 mg/mL
Measured CBZ conc ([3]; Captisol 20% w/v, CBZ source Spectrum): 9.4 mg/mL
Measured CBZ conc, Ave ([3]; Captisol 20% w/v, average of the three determinations): 9.6 mg/mL
Measured CBZ conc ([3]; Captisol 25% w/v, CBZ source Orgamol, listed as CBZ): 11.4 mg/mL and 12.3 mg/mL
Measured CBZ conc ([3]; Captisol 25% w/v, CBZ source Spectrum): 11.8 mg/mL
Measured CBZ conc, Ave ([3]; Captisol 25% w/v, average of the three determinations): 11.8 mg/mL
Measured CBZ conc ([3]; Captisol 30% w/v, CBZ source Orgamol, listed as CBZ): 13.5 mg/mL and 15.2 mg/mL
Measured CBZ conc ([3]; Captisol 30% w/v, CBZ source Spectrum): 14.6 mg/mL
Measured CBZ conc, Ave ([3]; Captisol 30% w/v, average of the three determinations): 14.4 mg/mL
Measured CBZ conc ([3]; Captisol 35% w/v, CBZ source Orgamol, listed as CBZ): 15.9 mg/mL and 18.4 mg/mL
Measured CBZ conc ([3]; Captisol 35% w/v, CBZ source Spectrum): 16.3 mg/mL
Measured CBZ conc, Ave ([3]; Captisol 35% w/v, average of the three determinations): 16.9 mg/mL
Measured CBZ conc ([3]; Captisol 40% w/v, CBZ source Orgamol, listed as CBZ): 18.3 mg/mL and 20.8 mg/mL
Measured CBZ conc ([3]; Captisol 40% w/v, CBZ source Spectrum): 19.3 mg/mL
Measured CBZ conc, Ave ([3]; Captisol 40% w/v, average of the three determinations): 19.5 mg/mL
Measured CBZ conc ([3]; Captisol 45% w/v, CBZ source Orgamol, listed as CBZ): 20.6 mg/mL and 22.5 mg/mL
Measured CBZ conc ([3]; Captisol 45% w/v, CBZ source Spectrum): 21.8 mg/mL
Measured CBZ conc, Ave ([3]; Captisol 45% w/v, average of the three determinations): 21.6 mg/mL
Measured CBZ conc ([3]; Captisol 50% w/v, CBZ source Orgamol, listed as CBZ): 22.5 mg/mL and 24.8 mg/mL
Measured CBZ conc ([3]; Captisol 50% w/v, CBZ source Spectrum): 26.6 mg/mL
Measured CBZ conc, Ave ([3]; Captisol 50% w/v, average of the three determinations): 24.6 mg/mL
Measured CBZ conc ([3]; Cavitron 0% w/v, CBZ source Orgamol): 0.2 mg/mL
Measured CBZ conc ([3]; Cavitron 0% w/v, CBZ source Spectrum): 0.3 mg/mL
Measured CBZ conc ([3]; Cavitron 5% w/v, CBZ source Orgamol, listed as CBZ): 2.7 mg/mL and 3.0 mg/mL
Measured CBZ conc ([3]; Cavitron 5% w/v, CBZ source Spectrum): 3.8 mg/mL
Measured CBZ conc, Ave ([3]; Cavitron 5% w/v, average of the three determinations): 3.2 mg/mL
Measured CBZ conc ([3]; Cavitron 10% w/v, CBZ source Orgamol, listed as CBZ): 5.4 mg/mL and 5.6 mg/mL
Measured CBZ conc ([3]; Cavitron 10% w/v, CBZ source Spectrum): 4.1 mg/mL
Measured CBZ conc, Ave ([3]; Cavitron 10% w/v, average of the three determinations): 5.0 mg/mL
Measured CBZ conc ([3]; Cavitron 15% w/v, CBZ source Orgamol, listed as CBZ): 8.2 mg/mL and 8.4 mg/mL
Measured CBZ conc ([3]; Cavitron 15% w/v, CBZ source Spectrum): 12.3 mg/mL
Measured CBZ conc, Ave ([3]; Cavitron 15% w/v, average of the three determinations): 9.6 mg/mL
Measured CBZ conc ([3]; Cavitron 20% w/v, CBZ source Orgamol, listed as CBZ): 10.9 mg/mL and 11.1 mg/mL
Measured CBZ conc ([3]; Cavitron 20% w/v, CBZ source Spectrum): 16.4 mg/mL
Measured CBZ conc, Ave ([3]; Cavitron 20% w/v, average of the three determinations): 12.8 mg/mL
Measured CBZ conc ([3]; Cavitron 25% w/v, CBZ source Orgamol, listed as CBZ): 14.0 mg/mL and 14.3 mg/mL
Measured CBZ conc ([3]; Cavitron 25% w/v, CBZ source Spectrum): 14.8 mg/mL
Measured CBZ conc, Ave ([3]; Cavitron 25% w/v, average of the three determinations): 14.4 mg/mL
Measured CBZ conc ([3]; Cavitron 30% w/v, CBZ source Orgamol, listed as CBZ): 15.9 mg/mL and 16.2 mg/mL
Measured CBZ conc ([3]; Cavitron 30% w/v, CBZ source Spectrum): 17.9 mg/mL
Measured CBZ conc, Ave ([3]; Cavitron 30% w/v, average of the three determinations): 16.7 mg/mL
Measured CBZ conc ([3]; Cavitron 35% w/v, CBZ source Orgamol, listed as CBZ): 18.1 mg/mL and 19.9 mg/mL
Measured CBZ conc ([3]; Cavitron 35% w/v, CBZ source Spectrum): 20.7 mg/mL
Measured CBZ conc, Ave ([3]; Cavitron 35% w/v, average of the three determinations): 19.6 mg/mL
Measured CBZ conc ([3]; Cavitron 40% w/v, CBZ source Orgamol, listed as CBZ): 22.5 mg/mL and 22.0 mg/mL
Measured CBZ conc ([3]; Cavitron 40% w/v, CBZ source Spectrum): 23.2 mg/mL
Measured CBZ conc, Ave ([3]; Cavitron 40% w/v, average of the three determinations): 22.6 mg/mL
Measured CBZ conc ([3]; Cavitron 45% w/v, CBZ source Orgamol, listed as CBZ): 25.5 mg/mL and 25.7 mg/mL
Measured CBZ conc ([3]; Cavitron 45% w/v, CBZ source Spectrum): 27.3 mg/mL
Measured CBZ conc, Ave ([3]; Cavitron 45% w/v, average of the three determinations): 26.2 mg/mL
Measured CBZ conc ([3]; Cavitron 50% w/v, CBZ source Orgamol, listed as CBZ): 27.8 mg/mL and 28.0 mg/mL
Measured CBZ conc ([3]; Cavitron 50% w/v, CBZ source Spectrum): 31.5 mg/mL
Measured CBZ conc, Ave ([3]; Cavitron 50% w/v, average of the three determinations): 29.1 mg/mL
solubility thermodynamic ([3]; aqueous Cavitron, water, thermodynamic from solid, Cavitron 0% w/v, average of the three determinations, read-out: Measured CBZ conc, Ave): 200 µg/mL (≈ 846 µM)
CBZ solubility in Cavitron as compared to Captisol ([3]; at most cyclodextrin concentrations, FIG. 1A): marginally improved in Cavitron
absolute bioavailability [4]: 75-85
